This note sets out measurements from US20260102383A1, “LPAR1 Inhibitors” (AbbVie Inc., priority 2024, published 2026).

This assay has as its target T1, human LPAR1 (Homo sapiens, UniProt Q92633).
T1 construct: host or cells: TangoEDG2-bla U2OS cells
The assay is described as follows: Arrestin assay (Arrestin Reporter EDG2-bla U2OS), inhibition of LPA-stimulated signal. The settings on record: TangoEDG2-bla U2OS cells expressing human LPAR1; 0.25 μM LPA; read-out: Arrestin Reporter EDG2-bla U2OS Human Merged IC50. Type of assay: cell-based. In a few lines:
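TangoEDG2-bla U2OS cells (1×10^4/well, plated 18-20 h) were preincubated 1 h at 37 °C with compound (12-point, 3-fold, 10 μM to 0.00006 μM), then stimulated 3 h with 0.25 μM LPA final. LiveBLAzer FRET B/G 460/530 nm emission ratio gave % inhibition; IC50 from 4-parameter variable-slope fit.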

T1 sequence (Q92633 whole entry): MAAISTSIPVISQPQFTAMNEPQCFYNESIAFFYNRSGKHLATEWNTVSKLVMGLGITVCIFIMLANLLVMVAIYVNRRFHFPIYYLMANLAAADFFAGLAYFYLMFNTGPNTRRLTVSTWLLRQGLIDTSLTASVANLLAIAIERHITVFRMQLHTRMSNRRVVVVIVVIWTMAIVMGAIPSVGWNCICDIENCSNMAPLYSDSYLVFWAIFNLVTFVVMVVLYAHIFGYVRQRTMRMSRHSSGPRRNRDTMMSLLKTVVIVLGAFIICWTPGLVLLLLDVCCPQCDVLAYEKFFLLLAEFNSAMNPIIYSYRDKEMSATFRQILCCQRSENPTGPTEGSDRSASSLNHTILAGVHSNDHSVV

By IC50 is commonly meant the point on the concentration scale where inhibition reaches its midpoint. `CC(C)c1ccnn1C1(C(=O)Nc2ccc(Cl)cc2OC(F)F)CCN(CC2(C(=O)O)CCN(C(=O)C3CC3)CC2)CC1` [Compound 43, 4-[[4-[[4-chloro-2-(difluoromethoxy)phenyl]carbamoyl]-4-(5-isopropylpyrazol-1-yl)-1-piperidyl]methyl]-1-(cyclopropanecarbonyl) piperidine-4-carboxylic acid]: the IC50 amounted to 27.6 nM.

As to `CC(C)c1ccnn1C1(C(=O)Nc2ccc(Cl)cc2OC(F)F)CCN(CC2(C(=O)O)CCN(C(=O)C3CCC3)CC2)CC1` [Compound 44, 4-[[4-[[4-chloro-2-(difluoromethoxy)phenyl]carbamoyl]-4-(5-isopropylpyrazol-1-yl)-1-piperidyl]methyl]-1-(cyclobutanecarbonyl) piperidine-4-carboxylic acid], the IC50 was found to be 30.5 nM. As to `CC(C)c1ccnn1C1(C(=O)Nc2ccc(Cl)cc2OC(F)F)CCN(CC2(C(=O)O)CCC2)CC1` [Compound 45, 1-[[4-[[4-chloro-2-(difluoromethoxy)phenyl]carbamoyl]-4-(5-isopropylpyrazol-1-yl)-1-piperidyl]methyl]cyclobutanecarboxylic acid], the IC50 is 17.6 nM. Under `CC(C)c1ccnn1C1(C(=O)Nc2ccc(Cl)cc2OC(F)F)CCN(C2CC(C(=O)O)C2)CC1` (centres unmarked) [Compound 46, 3-[4-[[4-chloro-2-(difluoromethoxy)phenyl]carbamoyl]-4-(5-isopropylpyrazol-1-yl)-1-piperidyl] cyclobutanecarboxylic acid] stands 62.7 nM. Turning to `CC(C)c1ccnn1C1(C(=O)Nc2ccc(Cl)cc2OC(F)F)CCN(CC2(C(=O)O)CCN(C(=O)CC3CCCC3)CC2)CC1` [Compound 47, 4-[[4-[[4-chloro-2-(difluoromethoxy)phenyl]carbamoyl]-4(5-isopropylpyrazol-1-yl)-1-piperidyl]methyl]-1-(2-cyclopentylacetyl) piperidine-4-carboxylic acid], the concentration for half-maximal inhibition (IC50) was determined as 14.8 nM.

As to `CC(C)c1ccnn1C1(C(=O)Nc2ccc(Cl)cc2OC(F)F)CCN(CC2(C(=O)O)CCN(C(=O)CC3CC3)CC2)CC1` [Compound 48], the IC50 stood at 44 nM.

On to `CC(C)c1ccnn1C1(C(=O)Nc2ccc(Cl)cc2OC(F)F)CCN(CC2(CC(=O)O)CC2)CC1` [Compound 49, 2-[1-[[4-[[4-chloro-2-(difluoromethoxy)phenyl]carbamoyl]-4-(5-isopropylpyrazol-1-yl)-1-piperidyl]methyl]cyclopropyl]acetic acid], for which the IC50 was 73.2 nM. Under `COc1ccc(C(C)(CN2CCC(C(=O)Nc3ccc(Cl)cc3OC(F)F)(n3nccc3C(C)C)CC2)C(=O)O)cc1` (centres unmarked) [Compound 50, 3-[4-[[4-chloro-2-(difluoromethoxy)phenyl]carbamoyl]-4-(5-isopropylpyrazol-1-yl)-1-piperidyl]-2-(4-methoxyphenyl)-2-methyl-propanoic acid] stands 64.1 nM; under `CC(C)c1ccnn1C1(C(=O)Nc2ccc(Cl)cc2OC(F)F)CCN(CC2(CC(=O)O)CCOCC2)CC1` [Compound 51, 2-[4-[[4-[[4-chloro-2-(difluoromethoxy)phenyl]carbamoyl]-4-(5-isopropylpyrazol-1-yl)-1-piperidyl]methyl]tetrahydropyran-4-yl]acetic acid], 56.6 nM. Under `CC(C)c1ccnn1C1(C(=O)Nc2ccc(Cl)cc2OC(F)F)CCN(CC(C)(C(=O)O)C2CCOCC2)CC1` (centres unmarked) [Compound 52, 3-[4-[[4-chloro-2-(difluoromethoxy)phenyl]carbamoyl]-4-(5-isopropylpyrazol-1-yl)-1-piperidyl]-2-methyl-2-tetrahydropyran-4-yl-propanoic acid] stands 70.5 nM; under `CC(C)c1ccnn1C1(C(=O)Nc2ccc(Cl)cc2OC(F)F)CCN(CC2(C(=O)O)CCN(C(=O)CC34CC(C3)C4)CC2)CC1` [Compound 53, 1-[2-(1-bicyclo[1.1.1]pentanyl)acetyl]-4-[[4-[[4-chloro-2-(difluoromethoxy)phenyl]carbamoyl]-4-(5-isopropylpyrazol-1-yl)-1-piperidyl]methyl]piperidine-4-carboxylic acid], 13.5 nM.
